In publication PMC5233616, “Structural and functional analyses of human DDX41 DEAD domain” (Protein & Cell, 2016):

What was measured:
hDDX41 DEAD domain [1] = target: T1, hDDX41 DEAD domain (Homo sapiens, UniProt Q9UJV9); experiment: isothermal titration calorimetry; conditions: read-out: binding affinity
T1 construct: gene DDX41; isolated DEAD domain (domain 1; motifs Q to III); monomer; full length is 1-622

hDDX41 DEAD domain [2] = target: T1, hDDX41 DEAD domain; experiment: thermal shift assay; assay type: binding; conditions: unliganded Tm 41 °C

T1 sequence (Q9UJV9 155-407 limits assumed): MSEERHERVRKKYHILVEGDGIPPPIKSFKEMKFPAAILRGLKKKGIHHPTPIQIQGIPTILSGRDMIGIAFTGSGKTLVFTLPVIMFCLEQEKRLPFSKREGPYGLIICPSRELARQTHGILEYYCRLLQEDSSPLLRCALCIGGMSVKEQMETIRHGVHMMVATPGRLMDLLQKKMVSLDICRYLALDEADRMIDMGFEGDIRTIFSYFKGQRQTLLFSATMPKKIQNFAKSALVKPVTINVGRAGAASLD

Row | Kd (hDDX41 DEAD domain [1]) [µM] | Tm increase (hDDX41 DEAD domain [2]) [°C] | SMILES
1 | 31 | 2.2 | Nc1ncnc2c1ncn2[C@@H]1O[C@H](COP(=O)(O)OP(=O)(O)O)[C@@H](O)[C@H]1O [ADP]
2 | 61 | 3.9 | Nc1ncnc2c1ncn2[C@@H]1O[C@H](COP(=O)(O)O)[C@@H](O)[C@H]1O [AMP]
